Laboratory results published in patent publication US12408666B2, “Pyridyloxy carboxylate derivative, preparation method therefor, herbicidal composition and use thereof” (priority 2018, dated 2025).

Columns and labels:
Monochoria vaginalis = test: Weed control effect evaluation in rice field; assay type: in vivo; conditions: paddy pot, 50 g/ha, 14 days after treatment, resistant to pyrazosulfuron-ethyl and penoxsulam
Procedure: Rice field soil was loaded into a 1/1,000,000 ha pot. The seeds of Monochoria vaginalis were sowed and gently covered with soil, then left to stand still in greenhouse in the state of 0.5-1 cm of water storage. It was kept at 3-4 cm of water storage thereafter. The weeds were treated by dripping the WP or SC water diluents prepared according to the common preparation method of the compounds of the present invention with pipette homogeneously to achieve specified effective amount when Monochoria vaginalis reached 0.5 leaf stage.
The fertility condition of Monochoria vaginalis 14 days and rice 21 days after the treatment of the compound of the invention with the naked eye.
Note: The seeds of Monochoria vaginalis were collected from Heilongjing Province of China.

Indica rice = test: Post-emergence test, crop safety (Table 4); assay type: in vivo; conditions: 3 weeks after treatment
Procedure: (§1) Post-emergence test experiment: Monocotyledonous and dicotyledonous weed seeds and main crop seeds (i. e. wheat, corn, rice, soybean, cotton, oilseed, millet and sorghum.) were put into a plastic pot loaded with soil. Then covered with 0.5-2 cm soil, the seeds were allowed to grow in good greenhouse environment. The test plants were treated at 2-3 leaf stage 2 weeks after sowing. The test compounds of the invention were dissolved with acetone respectively, then added with tween-80, and using 1.5 liters per hectare of an emulsible concentrate of methyl oleate as a synergist, and diluted by certain amount of water to certain concentration. The solution was sprayed to the plants with a sprayer. Then the plants were cultured for 3 weeks in the greenhouse, and the experiment result of weed controlling effect after 3 weeks was listed in tables 3-4.
(§2) […] Echinochloa crusgalli and Cyperus iria were collected from Hunan province of China, and were resistant to ALS inhibitor herbicides.

Japonica rice = test: Post-emergence test, crop safety (Table 4); assay type: in vivo; conditions: 3 weeks after treatment
Procedure: as §1, §2

Cyperus iria = test: Post-emergence test, ALS-resistant weed (Table 4); assay type: in vivo; conditions: 504 h, 3 weeks, resistant to ALS inhibitor herbicides, read-out: Cyperus iria, activity level (growth inhibition rate)
Procedure: as §1
(§3) Note: the application dose was active ingredient 600 g/ha, plus water 450 kg/ha. Echinochloa crusgalli and Cyperus iria were collected from Hunan province of China, and were resistant to ALS inhibitor herbicides.

Echinochloa crusgalli = test: Post-emergence test, ALS-resistant weed (Table 4); assay type: in vivo; conditions: Echinochloa crus-galli, 504 h, 3 weeks, resistant to ALS inhibitor herbicides, read-out: Echinochloa crusgalli, activity level (growth inhibition rate)
Procedure: as §1, §3

[1] = tested on: Echinochloa crusgalli, Digitaria sanguinalis, Leptochloa chinensis and Setaria viridis; conditions: commercial product; cited from earlier work
Soybean = test: Spray drift test by unmanned gyroplane, neighbouring soybean field; assay type: in vivo; conditions: 600 g/ha applied by unmanned gyroplane, soybean field at 10 meters, gentle breeze
Procedure: Broadleaf crops are very sensitive to hormonal herbicides, therefore crop injuries are more likely to occur in case of spray drifting. Tests were conducted in gentle breeze for the compounds of the present invention. The formulation of the compounds of the present invention was applied by DJI unmanned gyroplane with application height of 1 m and water volume of 20 kg/ha. The use rate was 600 g/ha. The active ingredient was dissolved by acetone and diluted to aqueous solution of Tween 80. There's a soybean field at 10 meters from the application area and the height of soybean plants were about 15 cm at the application time.

rice = conditions: known compound; cited from earlier work

In the case of `COc1cnc(OC)n2nc(NS(=O)(=O)c3c(OCC(F)F)cccc3C(F)(F)F)nc12` [Penoxsulam], the “Monochoria Vaginalis, activity level” value (Monochoria vaginalis) was 1 (Level 1: the growth inhibition rate is equal to or greater than 5% and less than 20%).
For `CCCCOCC(C)OC(=O)COc1nc(F)c(Cl)c(N)c1Cl` (centres unmarked) [Control compound B], the “Indica rice, activity level (growth inhibition rate)” value (Indica rice; 600 g/ha) was 2 (Level 2: the growth inhibition rate is equal to or greater than 20% and less than 40%), the “Japonica rice, activity level (growth inhibition rate)” value (Japonica rice; 600 g/ha) was 2 (Level 2: the growth inhibition rate is equal to or greater than 20% and less than 40%) and the inhibition at 600 g/ha (Cyperus iria) was 40 to 60%. The inhibition at 600 g/ha (Echinochloa crusgalli) was 20 to 40% and the “Efficacy on key grasses in rice” value [1] was “very poor”.
In the case of `CCOC(=O)C(C)Oc1nc(F)c(Cl)c(N)c1Cl` (centres unmarked) [Control compound C], the “Soybean, injury level from spray drift” value (Soybean) was 3 (Level 3: the growth inhibition rate is equal to or greater than 40% and less than 60%).
With `COc1cc(OC)nc(Oc2cccc(Oc3nc(OC)cc(OC)n3)c2C(=O)O)n1` [Bispyribac-sodium] the “Indica rice, activity level (growth inhibition rate)” value (Indica rice; 100 g/ha) was 2 (Level 2: the growth inhibition rate is equal to or greater than 20% and less than 40%), the “Japonica rice, activity level (growth inhibition rate)” value (Japonica rice; 100 g/ha) was 4 (Level 4: the growth inhibition rate is equal to or greater than 60% and less than 85%) and the inhibition at 100 g/ha (Cyperus iria; 100 g/ha) was 20 to 40%. For the same compound, the inhibition at 100 g/ha (Echinochloa crusgalli; 100 g/ha) was 5 to 20%.
With `CC(Oc1nc(F)c(Cl)c(N)c1Cl)C(=O)O` (centres unmarked) [Control compound A] the “Indica rice, activity level (growth inhibition rate)” value (Indica rice; 300 g/ha) was 3 (Level 3: the growth inhibition rate is equal to or greater than 40% and less than 60%), the “Indica rice, activity level (growth inhibition rate)” value (Indica rice; 600 g/ha) was 3 (Level 3: the growth inhibition rate is equal to or greater than 40% and less than 60%) and the “Japonica rice, activity level (growth inhibition rate)” value (Japonica rice; 300 g/ha) was 2 (Level 2: the growth inhibition rate is equal to or greater than 20% and less than 40%). For the same compound, the “Japonica rice, activity level (growth inhibition rate)” value (Japonica rice; 600 g/ha) was 3 (Level 3: the growth inhibition rate is equal to or greater than 40% and less than 60%), the inhibition at 300 g/ha (Cyperus iria; 300 g/ha) was 60 to 85% and the inhibition at 600 g/ha (Cyperus iria) was > 85%. For the same compound, the inhibition at 300 g/ha (Echinochloa crusgalli; 300 g/ha) was 60 to 85%, the inhibition at 600 g/ha (Echinochloa crusgalli) was > 85% and the Safety and selectivity (rice) was “poor safety and low selectivity”.
